Source: patent US6664231B1, “Anti-fungal peptides” (priority 1993, dated 2003)
Square brackets hold non-standard residues; d marks the D form. Peptide text beside a SMILES is read from it. Phe(4-NH2) = Nc1ccc(C[C@H](N)C(=O)O)cc1; 1Nal = N[C@@H](Cc1cccc2ccccc12)C(=O)O; d2Nal = N[C@H](Cc1ccc2ccccc2c1)C(=O)O

Test system: C. albicans (CA-1, Strain SLU-1)
Test: Radial diffusion assay
Format: cell-based, Candida albicans
Conditions: pmoles of peptide added to well to achieve a 30 mm^2 zone, PROBIT analysis; crude or purified (P′) peptide
Method: In the radial diffusion assay procedures, the CA-1 cultures and peptide solutions were prepared as in the broth assay procedure described above. Ten mL of molten underlayer agarose comprising 3% Sabouraud Dextrose broth, 1% agarose (Pharmacia, Piscataway, N.J.), 0.02% Tween 20, and 10 mM sodium phosphate at pH 7.4, was added to polystyrene tubes and maintained in a 56° C. water bath until the addition of yeast. Tubes were cooled to approximately 45° C., yeast were added to give a final concentration of 1×10^6 CFU/mL, and the tubes were mixed again by inverting. The contents were poured into level square petri dishes and distributed evenly. […] A series of wells were punched into the hardened agarose using a sterile 3 mm punch attached to a vacuum apparatus.
Peptides to be assayed were 2-fold serially diluted in Dulbecco's PBS (D-PBS) starting from a concentration of approximately 1 mg/mL. Five μL of each dilution were added to each well and the plates were incubated at 37° C. for 3 hours. An overlayer of 10 mL of molten agarose comprising 6% Sabouraud Dextrose broth, 1% agarose, and 10 mM sodium phosphate, pH 7.4, (at approximately 45° C.) was then added and plates were incubated overnight at 37° C. Following this overnight incubation, a dilute Coomassie solution was poured into the plates and allowed to stain for 24 hours.
Clear zones of growth inhibition around each well were measured with calipers. The actual area of growth inhibition (mm^2) was calculated by subtracting the area of the well. Table 1 below sets out the results of the radial diffusion assays for tested peptides in terms of the number of picomoles (pmol) of peptide required to establish a 30 mm^2 area of growth inhibition calculated by PROBIT analysis (e.g., calculated from regression of the linear portion of log-concentration dose-response curve, log pmol/well vs. net area of inhibition).

SMILES	C. albicans pmol/30 mm^2 zone
CC[C@H](C)[C@H](NC(=O)[C@H](CC(C)C)NC(=O)[C@H](Cc1c[nH]c2ccccc12)NC(=O)CNC(=O)[C@@H](NC(=O)[C@H](CCCCN)NC(=O)[C@H](CO)NC(=O)[C@@H](N)CCCCN)C(C)C)C(=O)N[C@@H](CCC(N)=O)C(=O)N[C@@H](Cc1cccc2ccccc12)C(=O)N[C@@H](Cc1ccccc1)C(=O)N[C@@H](Cc1c[nH]cn1)C(=O)N[C@@H](CCCCN)C(=O)N[C@@H](Cc1cccc2ccccc12)C(N)=O [XMP.227] (H-KSKVGWLIQ[1Nal]FHK[1Nal]-NH2)	>2,365 pmol/30 mm^2 zone
CC[C@H](C)[C@H](NC(=O)[C@H](CC(C)C)NC(=O)[C@H](Cc1c[nH]c2ccccc12)NC(=O)CNC(=O)[C@@H](NC(=O)[C@H](CCCCN)NC(=O)[C@H](CO)NC(=O)[C@@H](N)CCCCN)C(C)C)C(=O)N[C@@H](Cc1ccc(N)cc1)C(=O)N[C@@H](CC(C)C)C(=O)N[C@@H](Cc1ccccc1)C(=O)N[C@@H](Cc1c[nH]cn1)C(=O)N[C@@H](CCCCN)C(=O)N[C@@H](Cc1cccc2ccccc12)C(N)=O [XMP.228] (H-KSKVGWLI[Phe(4-NH2)]LFHK[1Nal]-NH2)	b (No detectable activity up to 5 μg/well)
CC[C@H](C)[C@H](NC(=O)[C@H](CC(C)C)NC(=O)[C@H](Cc1c[nH]c2ccccc12)NC(=O)[C@H](Cc1ccc(N)cc1)NC(=O)[C@@H](NC(=O)[C@H](CCCCN)NC(=O)[C@H](CO)NC(=O)[C@@H](N)CCCCN)C(C)C)C(=O)N[C@@H](CCC(N)=O)C(=O)N[C@@H](CC(C)C)C(=O)N[C@@H](Cc1ccccc1)C(=O)N[C@@H](Cc1c[nH]cn1)C(=O)N[C@@H](CCCCN)C(=O)N[C@@H](Cc1cccc2ccccc12)C(N)=O [XMP.229]	b (No detectable activity up to 5 μg/well)
CC[C@H](C)[C@H](NC(=O)[C@H](CC(C)C)NC(=O)[C@H](Cc1c[nH]c2ccccc12)NC(=O)CNC(=O)[C@@H](NC(=O)[C@H](CCCCN)NC(=O)[C@H](CO)NC(=O)[C@@H](N)CCCCN)C(C)C)C(=O)N[C@@H](CCC(N)=O)C(=O)N[C@@H](CC(C)C)C(=O)N[C@@H](Cc1c[nH]c2ccccc12)C(=O)N[C@@H](Cc1c[nH]cn1)C(=O)N[C@@H](CCCCN)C(=O)N[C@@H](Cc1cccc2ccccc12)C(N)=O [XMP.230] (H-KSKVGWLIQLWHK[1Nal]-NH2)	>2,386 pmol/30 mm^2 zone
CC[C@H](C)[C@H](NC(=O)[C@H](CC(C)C)NC(=O)[C@H](Cc1c[nH]c2ccccc12)NC(=O)CNC(=O)[C@@H](NC(=O)[C@H](CCCCN)NC(=O)[C@H](CO)NC(=O)[C@@H](N)CCCCN)C(C)C)C(=O)N[C@@H](CCC(N)=O)C(=O)N[C@@H](Cc1cccc2ccccc12)C(=O)N[C@@H](Cc1ccccc1)C(=O)N[C@@H](Cc1cccc2ccccc12)C(=O)N[C@@H](CCCCN)C(=O)N[C@@H](CCCCN)C(N)=O [XMP.231] (H-KSKVGWLIQ[1Nal]F[1Nal]KK-NH2)	b (No detectable activity up to 5 μg/well)
CC[C@H](C)[C@H](NC(=O)[C@H](CC(C)C)NC(=O)[C@H](Cc1c[nH]c2ccccc12)NC(=O)CNC(=O)[C@@H](NC(=O)[C@H](CCCCN)NC(=O)[C@H](CO)NC(=O)[C@@H](N)CCCCN)C(C)C)C(=O)N[C@@H](Cc1ccc(N)cc1)C(=O)N[C@@H](CC(C)C)C(=O)N[C@@H](Cc1ccccc1)C(=O)N[C@@H](Cc1cccc2ccccc12)C(=O)N[C@@H](CCCCN)C(=O)N[C@@H](CCCCN)C(N)=O [XMP.232] (H-KSKVGWLI[Phe(4-NH2)]LF[1Nal]KK-NH2)	b (No detectable activity up to 5 μg/well)
CC[C@H](C)[C@H](NC(=O)[C@H](CC(C)C)NC(=O)[C@H](Cc1c[nH]c2ccccc12)NC(=O)[C@H](Cc1ccc(N)cc1)NC(=O)[C@@H](NC(=O)[C@H](CCCCN)NC(=O)[C@H](CO)NC(=O)[C@@H](N)CCCCN)C(C)C)C(=O)N[C@@H](CCC(N)=O)C(=O)N[C@@H](CC(C)C)C(=O)N[C@@H](Cc1ccccc1)C(=O)N[C@@H](Cc1cccc2ccccc12)C(=O)N[C@@H](CCCCN)C(=O)N[C@@H](CCCCN)C(N)=O [XMP.233] (H-KSKV[Phe(4-NH2)]WLIQLF[1Nal]KK-NH2)	b (No detectable activity up to 5 μg/well)
CC[C@H](C)[C@H](NC(=O)[C@H](CC(C)C)NC(=O)[C@H](Cc1c[nH]c2ccccc12)NC(=O)CNC(=O)[C@@H](NC(=O)[C@H](CCCCN)NC(=O)[C@H](CO)NC(=O)[C@@H](N)CCCCN)C(C)C)C(=O)N[C@@H](CCC(N)=O)C(=O)N[C@@H](CC(C)C)C(=O)N[C@@H](Cc1c[nH]c2ccccc12)C(=O)N[C@@H](Cc1cccc2ccccc12)C(=O)N[C@@H](CCCCN)C(=O)N[C@@H](CCCCN)C(N)=O [XMP.234] (H-KSKVGWLIQLW[1Nal]KK-NH2)	b (No detectable activity up to 5 μg/well)
CC[C@H](C)[C@H](NC(=O)[C@H](CC(C)C)NC(=O)[C@H](Cc1c[nH]c2ccccc12)NC(=O)CNC(=O)[C@@H](NC(=O)[C@H](CCCCN)NC(=O)[C@H](CO)NC(=O)[C@@H](N)CCCCN)C(C)C)C(=O)N[C@@H](Cc1ccc(N)cc1)C(=O)N[C@@H](Cc1cccc2ccccc12)C(=O)N[C@@H](Cc1ccccc1)C(=O)N[C@@H](Cc1c[nH]cn1)C(=O)N[C@@H](CCCCN)C(=O)N[C@@H](CCCCN)C(N)=O [XMP.235] (H-KSKVGWLI[Phe(4-NH2)][1Nal]FHKK-NH2)	b (No detectable activity up to 5 μg/well)
CC[C@H](C)[C@H](NC(=O)[C@H](CC(C)C)NC(=O)[C@H](Cc1c[nH]c2ccccc12)NC(=O)[C@H](Cc1ccc(N)cc1)NC(=O)[C@@H](NC(=O)[C@H](CCCCN)NC(=O)[C@H](CO)NC(=O)[C@@H](N)CCCCN)C(C)C)C(=O)N[C@@H](CCC(N)=O)C(=O)N[C@@H](Cc1cccc2ccccc12)C(=O)N[C@@H](Cc1ccccc1)C(=O)N[C@@H](Cc1c[nH]cn1)C(=O)N[C@@H](CCCCN)C(=O)N[C@@H](CCCCN)C(N)=O [XMP.236] (H-KSKV[Phe(4-NH2)]WLIQ[1Nal]FHKK-NH2)	>2,631 pmol/30 mm^2 zone
CC[C@H](C)[C@H](NC(=O)[C@H](CC(C)C)NC(=O)[C@H](Cc1c[nH]c2ccccc12)NC(=O)CNC(=O)[C@@H](NC(=O)[C@H](CCCCN)NC(=O)[C@H](CO)NC(=O)[C@@H](N)CCCCN)C(C)C)C(=O)N[C@@H](CCC(N)=O)C(=O)N[C@@H](Cc1cccc2ccccc12)C(=O)N[C@@H](Cc1c[nH]c2ccccc12)C(=O)N[C@@H](Cc1c[nH]cn1)C(=O)N[C@@H](CCCCN)C(=O)N[C@@H](CCCCN)C(N)=O [XMP.237] (H-KSKVGWLIQ[1Nal]WHKK-NH2)	>2,777 pmol/30 mm^2 zone
CC[C@H](C)[C@H](NC(=O)[C@H](CC(C)C)NC(=O)[C@H](Cc1c[nH]c2ccccc12)NC(=O)[C@H](Cc1ccc(N)cc1)NC(=O)[C@@H](NC(=O)[C@H](CCCCN)NC(=O)[C@H](CO)NC(=O)[C@@H](N)CCCCN)C(C)C)C(=O)N[C@@H](Cc1ccc(N)cc1)C(=O)N[C@@H](CC(C)C)C(=O)N[C@@H](Cc1ccccc1)C(=O)N[C@@H](Cc1c[nH]cn1)C(=O)N[C@@H](CCCCN)C(=O)N[C@@H](CCCCN)C(N)=O [XMP.238] (H-KSKV[Phe(4-NH2)]WLI[Phe(4-NH2)]LFHKK-NH2)	2,702 pmol/30 mm^2 zone
CC[C@H](C)[C@H](NC(=O)[C@H](CC(C)C)NC(=O)[C@H](Cc1c[nH]c2ccccc12)NC(=O)CNC(=O)[C@@H](NC(=O)[C@H](CCCCN)NC(=O)[C@H](CO)NC(=O)[C@@H](N)CCCCN)C(C)C)C(=O)N[C@@H](Cc1ccc(N)cc1)C(=O)N[C@@H](CC(C)C)C(=O)N[C@@H](Cc1c[nH]c2ccccc12)C(=O)N[C@@H](Cc1c[nH]cn1)C(=O)N[C@@H](CCCCN)C(=O)N[C@@H](CCCCN)C(N)=O [XMP.239] (H-KSKVGWLI[Phe(4-NH2)]LWHKK-NH2)	>2,802 pmol/30 mm^2 zone
CC[C@H](C)[C@H](NC(=O)[C@H](CC(C)C)NC(=O)[C@H](Cc1c[nH]c2ccccc12)NC(=O)[C@H](Cc1ccc(N)cc1)NC(=O)[C@@H](NC(=O)[C@H](CCCCN)NC(=O)[C@H](CO)NC(=O)[C@@H](N)CCCCN)C(C)C)C(=O)N[C@@H](CCC(N)=O)C(=O)N[C@@H](CC(C)C)C(=O)N[C@@H](Cc1c[nH]c2ccccc12)C(=O)N[C@@H](Cc1c[nH]cn1)C(=O)N[C@@H](CCCCN)C(=O)N[C@@H](CCCCN)C(N)=O [XMP.240] (H-KSKV[Phe(4-NH2)]WLIQLWHKK-NH2)	>2,802 pmol/30 mm^2 zone
CC[C@H](C)[C@H](NC(=O)[C@H](CC(C)C)NC(=O)[C@@H](Cc1ccc2ccccc2c1)NC(=O)CNC(=O)[C@@H](NC(=O)[C@H](CCCCN)NC(=O)[C@H](CO)NC(=O)[C@@H](N)CCCCN)C(C)C)C(=O)N[C@@H](CC(C)C)C(=O)N[C@@H](CC(C)C)C(=O)N[C@@H](Cc1ccccc1)C(=O)N[C@@H](Cc1c[nH]cn1)C(=O)N[C@@H](CCCCN)C(=O)N[C@@H](CCCCN)C(N)=O [XMP.242] (H-KSKVG[d2Nal]LILLFHKK-NH2)	359 pmol/30 mm^2 zone
CC[C@H](C)[C@H](NC(=O)[C@H](CC(C)C)NC(=O)[C@@H](Cc1ccc2ccccc2c1)NC(=O)CNC(=O)[C@@H](NC(=O)[C@H](CCCCN)NC(=O)[C@H](CO)NC(=O)[C@@H](N)CCCCN)C(C)C)C(=O)N[C@@H](CCC(N)=O)C(=O)N[C@@H](CC(C)C)C(=O)N[C@@H](Cc1c[nH]c2ccccc12)C(=O)N[C@@H](Cc1c[nH]cn1)C(=O)N[C@@H](CCCCN)C(=O)N[C@@H](CCCCN)C(N)=O [XMP.243] (H-KSKVG[d2Nal]LIQLWHKK-NH2)	716 pmol/30 mm^2 zone
